Test results as given in PubChem BioAssay (NCI).
Several values for one entry are separate records, joined by “and”; a condition that tells them apart may be missing. Equal values may be shown once.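 Interpolation was linear, between the two tested concentrations surrounding the appropriate level; five concentrations were tested over 48 hours in 96-well plates. GI50: concentration for 50% inhibition of growth. TGI: total growth inhibition.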

Key:
Assay in all cases: NCI-60 cell line screen, 48 h
[1] = system: UACC-62 melanoma
[2] = system: NCI-H226 lung
[3] = system: A498 renal
[4] = system: MOLT-4 leukemia
[5] = system: EKVX NSCLC
[6] = system: HS 578T breast
[7] = system: HOP-62 NSCLC
[8] = system: OVCAR-3 ovarian
[9] = system: SF-539 CNS
[10] = system: NCI-H522 lung

SMILES	GI50 [1]	TGI [1]	GI50 [2]	TGI [2]	GI50 [3]	TGI [3]	GI50 [4]	TGI [4]	GI50 [5]	TGI [5]	GI50 [6]	TGI [6]	GI50 [7]	TGI [7]	GI50 [8]	TGI [8]	GI50 [9]	TGI [9]	GI50 [10]	TGI [10]
CC(C)c1cnn2c(NCc3ccccc3)cc(NC[C@H]3CCNC[C@@H]3O)nc12	0.236 µM and 0.29 µM	1.96 µM and 1.92 µM	0.766 µM and 0.725 µM	4.01 µM and 5.53 µM	1.63 µM and 2.59 µM	4.2 µM and 8.15 µM	0.361 µM and 0.504 µM	10.2 µM and 14 µM	0.861 µM and 0.645 µM	8.2 µM and 6.07 µM	0.839 µM and 1.38 µM	4.63 µM and 5.41 µM	0.225 µM and 0.348 µM	1.33 µM and 3.13 µM	0.489 µM and 0.707 µM	8.66 µM and 4.17 µM	0.292 µM and 0.436 µM	1.68 µM and 1.43 µM	0.844 µM and 0.438 µM	2.7 µM and 2.43 µM
O=S(=O)(NCCNc1nccc(-c2c(-c3ccc(F)c(O)c3)nc3sccn23)n1)c1ccc(F)cc1	0.587 µM	9.82 µM	4.01 µM	20.4 µM	5.72 µM	18.2 µM	2.71 µM	12.9 µM	5.42 µM	60.6 µM	2.94 µM	8.81 µM	5.09 µM	74.4 µM	4.09 µM	59.5 µM	4.54 µM	25.3 µM	3.31 µM	19.2 µM
COc1ccc(-c2ccncc2)cc1C(N)=O	> 25 µM	> 25 µM	> 25 µM	> 25 µM	> 22.8 µM	> 25 µM	> 25 µM	> 25 µM	> 25 µM	> 25 µM	> 25 µM	> 25 µM	> 25 µM	> 25 µM	> 25 µM	> 25 µM	> 25 µM	> 25 µM	> 25 µM	> 25 µM
